Experiments:
[1] = Imiquimod induced psoriasis-like phenotype, adapted PASI score; format: in vivo, C57BL/6J mice; conditions: day 4 of imiquimod administration, AZ13711265 10 mg/kg intraperitoneally daily; for Erythema score (PASI) / Scaling score (PASI): scale 0-4
Experimental: FIG. 5: 8 weeks old C57BL/6J mice were shaved two days before the experiment. One day before administration of imiquimod and daily for 5 days, mice were intraperitoneally injected with vehicle (60% PEG, 40% PBS) or with the Pak1 inhibitor AZ13711265 (10 mg/kg). Mice were treated in the back daily for 4 days either with Vaseline or with Aldara cream corresponding to 3,125 mg of imiquimod (IMQ) to induce psoriasis-like phenotype. The erythema and scaling was analyzed by an adapted version of the clinical PASI score, 0: none; 1: slight; 2: moderated; 3: strong; 4: very strong phenotype. The total score is the cumulative score of scaling and erythema. Results are expressed as mean±SEM. p-value: *<0.01, ***<0.001, compared to control
Futhermore, we investigated the effect of Pak1 kinase inhibitor on a psoriasis model. Dermal application of imiquimod induced a psoriasis-like phenotype including scaling and erythema that are scored using the PASI score.

Caspase-1 activation = assay: FAM-FLICA Caspase-1 activation assay by microscopy in BMDMs; format: cell-based, mouse; conditions: for Block of CNF1-triggered Caspase-1 activity/activation measured using FAM-FLICA: BMDMs, inhibitor 45 min before CNF1 500 ng/mL, 1 μM MCC950, 5 μM IPA-3, 1 μM FRAX597 (FIG. 1b, 2d)
Experimental: Bone-marrow derived macrophages (BMDMs) were extracted from femurs of 6-10 weeks-old BALB/c, C57BL/6J or C57BL/6J KO mice as indicated in the figure legends and were cultured in RPMI GlutaMax medium (Life Technologies) supplemented with 100 ng/mL M-CSF (Premium grade, Miltenyi Biotec), 10% heat-inactivated FBS (Biowest) and 50 μg/mL gentamycin (Life Technologies) at 37° C. in an atmosphere containing 5% CO2. The cells were seeded at a concentration of 10^6 cells per well in a 6-well plate. After 6 days of differentiation, BMDMs were used for experiments. NLRP3, NLRC4, PYRIN, and GSDMD knock-out BMDMs were a kind gift from M. Lamkanfi. […] SiRNAs were transfected in HEK 293T cells or BMDMs during 72 h using Lipofectamine RNAiMAX Reagent (ThermoFisher Scientific) according to the manufacturer instructions. Cells were transfected as indicated in figure legends with siRNAs targeting NLRP3 (L-053455-00, Dharmacon), Rac1 (L-041170-00, Dharmacon), Rac2 (L-041171-01, Dharmacon), Nek7 (J-063266-09, Dharmacon), PAK1 (L-048101-00, Dharmacon), PAK2 (L-040615-00, Dharmacon) or non-targeting control siRNA (D-001810-10, Dharmacon). […] Cells pre-treated with ultrapure LPS for 6 h followed by the addition of Nigericin 504 (Invivogen) or ATP 5 mM (Invivogen) for 30 minutes were used as positive control of NLRP3 inflammasome activation.
Caspase 1 activation was detected using the fluorescent probe FAM-FLICA (ImmunoChemistry Technologies) after 6 h of treatment, according to the manufacturer instructions. After labelling, cells were fixed in 4% paraformaldehyde for 15 min and blocked with 2% TBS-BSA. Cells were incubated with mouse anti-NLRP3 antibody (clone Cryo-2, Adipogen) for 1 hour followed by incubation with secondary antibody TexasRed anti-mouse IgG (TI-2000, Vector Laboratories) and Hoechst (Thermo Fisher Scientific) for 30 minutes. Cells were imaged using Nikon MR confocal microscope. […]
Primary bone marrow derived macrophages (BMDMs) were treated with CNF1 for 6 hours to trigger Caspase-1 activation. […] Cells with dots of FAM-FLICA staining were determined as positive (data not shown). […] To this aim, BMDMs were transfected with a siRNA library targeting mouse NLRs and Caspase-1 activation was monitored as previously described. […]

IL-1β maturation = IL-1β maturation by immunoblot in BMDMs treated with LPS and CNF1; format: cell-based, mouse; conditions: 5 μM IPA-3 or 1 μM FRAX597 45 min before CNF1 500 ng/mL and LPS 100 ng/mL 8 h (FIG. 2c)
Experimental: (a-b) BMDMs isolated from BALB/c mice were transfected for 72 h with siRNA targeting either NLRP3, Nek7, Pak1, Pak2 as indicated and non-targeting siRNA were used as control. […] (c) Supernatants and cell lysates were analyzed by immunoblot. […] Active Caspase 1 was stained with FAM-FLICA, analyzed by microscopy and FAM-FLICA positive cells were counted. (n=1000 per conditions). p-value ****<0.0001, compared to the CNF1-treated BMDMs (e) HEK293T cells were transfected with plasmids encoding NLRP3 inflammasome component (myc-NLRP3, ASC-GFP, mCaspase-1) together with Flag-Rac2Q61E (Q61E), myc-Pak1 wild type (WT) or myc-Pak1T423E (T423E) and caspase-1 cleavage was analyzed by immunoblot.
HEK 293T cells were obtained from ATCC (CRL-3216) and maintained according to ATCC instructions. Bone-marrow derived macrophages (BMDMs) were extracted from femurs of 6-10 weeks-old BALB/c, C57BL/6J or C57BL/6J KO mice as indicated in the figure legends and were cultured in RPMI GlutaMax medium (Life Technologies) supplemented with 100 ng/mL M-CSF (Premium grade, Miltenyi Biotec), 10% heat-inactivated FBS (Biowest) and 50 μg/mL gentamycin (Life Technologies) at 37° C. in an atmosphere containing 5% CO2. The cells were seeded at a concentration of 10^6 cells per well in a 6-well plate. After 6 days of differentiation, BMDMs were used for experiments. […]

E. coli expressing CNF1 = assay: Mouse model of bacteremia with E. coli expressing CNF1; format: in vivo; conditions: BALB/c mice, 48 h after infection
Experimental: Data are expressed as the geometric mean±95 CI *p<0.05.
Mice were injected intravenously with 10^7 CFUs of E. coli as previously described^8. For the determination of bacteremia, blood was collected from the tail vein at the indicated times post-infection, serially diluted in sterile PBS and plated on LB plates containing streptomycin (200 μg/ml) and the plates were incubated for 16 h at 37° C. Injection quality was controlled by plating blood samples obtained from the mice at 5 min after injection. NLRP3 knock-out mice were kindly provided by V. Petrilli and have been previously described^21. Female NLRP3 KO and female congenic WT C57BL/6J littermate mice were injected intravenously with 10^7 CFUs of E. coli and the determination of bacteremia was monitored as previously described^8.
Mice were infected with the same strain and concentration of CNF1 expressing E. coli and the bacteremia was measured on each infected mouse at 0 h, 4 h, 24 h and 48 h.

Row | Structure (SMILES) | Total PASI score (cumulative score of scaling and erythema) [1] | Erythema score (PASI) [1] | Scaling score (PASI) [1] | Block of CNF1-triggered Caspase-1 activity/activation measured using FAM-FLICA (Caspase-1 activation) | Block of IL-1β maturation in macrophages treated with LPS and CNF1 (IL-1β maturation) | further results
1 | CCS(=O)(=O)c1cc(Nc2ncc(F)c(N(C)c3cc(CO)c(C)cc3C)n2)ccc1N1C[C@@H]2C[C@H]1CN2C [AZ13711265] | 3.1 | 1.4 | 1.7 |  |  | 
2 | CCn1c(=O)c(-c2ccc(-c3cncs3)cc2Cl)cc2cnc(Nc3ccc(N4CCN(C)CC4)cc3)nc21 [FRAX597] |  |  |  | sufficient to block | sufficient to block | 
3 | Oc1ccc2ccccc2c1SSc1c(O)ccc2ccccc12 [IPA-3] |  |  |  | sufficient to block | sufficient to block | 
4 | CC(C)(O)c1coc(S(=O)(=O)NC(=O)Nc2c3c(cc4c2CCC4)CCC3)c1 [MCC950] |  |  |  | sufficient to block |  | Animals found positive for bacteria (E. coli expressing CNF1; MCC950 50 mg/kg IP once a day, control group 0): 56%; Bacterial load compared to control group (E. coli expressing CNF1; MCC950 50 mg/kg IP): statistically significant higher
5 | CO[C@@H]1C[C@@H](C[C@H]2CC[C@H](C)[C@H]([C@@H](C)C(=O)O)O2)O[C@]2(O[C@](C)([C@H]3CC[C@@](C)([C@@H]4O[C@@H]([C@H]5O[C@@](O)(CO)[C@H](C)C[C@@H]5C)C[C@@H]4C)O3)C[C@H]2C)[C@@H]1C [Nigericin] |  |  |  |  |  | FAM-FLICA positive cells (mean) (Caspase-1 activation; WT BMDMs (FIG. 1b), control condition 2.5%): 15.4%
6 | CC(C)Cn1cnc2c(N)nc3ccccc3c21 [imiquimod] | 6.5 | 3 | 3.5 |  |  | 

— US20220220480A1, “METHODS AND COMPOSITIONS FOR TREATMENT OF NLRP3 IN[…] IL-1BETA DEPENDENT DISORDERS” (priority 2019, published 2022)
